Laboratory results published in patent publication US7816330B2, “Substituted benzimidazole-, benztriazole-, and benzimidazolone-O-glucosides” (Janssen Pharmaceutica NV, priority 2003, dated 2010).

Tests used:
human SGLT2 = biological target: T1, human SGLT2 (Homo sapiens, UniProt P31639); experiment: Cell-based assay for sodium-dependent glucose transport (14C-AMG uptake), CHOK-SGLT2; conditions: CHO-K1 cells stably expressing human SGLT2, Na-dependent 14C-AMG uptake; for inhibition at 10 µM: read-out: CHOK-SGLT2 % Inh. @10 μM
T1 construct: expressed in transfected cells; pcDNA vector)
T1 sequence (P31639 1-672): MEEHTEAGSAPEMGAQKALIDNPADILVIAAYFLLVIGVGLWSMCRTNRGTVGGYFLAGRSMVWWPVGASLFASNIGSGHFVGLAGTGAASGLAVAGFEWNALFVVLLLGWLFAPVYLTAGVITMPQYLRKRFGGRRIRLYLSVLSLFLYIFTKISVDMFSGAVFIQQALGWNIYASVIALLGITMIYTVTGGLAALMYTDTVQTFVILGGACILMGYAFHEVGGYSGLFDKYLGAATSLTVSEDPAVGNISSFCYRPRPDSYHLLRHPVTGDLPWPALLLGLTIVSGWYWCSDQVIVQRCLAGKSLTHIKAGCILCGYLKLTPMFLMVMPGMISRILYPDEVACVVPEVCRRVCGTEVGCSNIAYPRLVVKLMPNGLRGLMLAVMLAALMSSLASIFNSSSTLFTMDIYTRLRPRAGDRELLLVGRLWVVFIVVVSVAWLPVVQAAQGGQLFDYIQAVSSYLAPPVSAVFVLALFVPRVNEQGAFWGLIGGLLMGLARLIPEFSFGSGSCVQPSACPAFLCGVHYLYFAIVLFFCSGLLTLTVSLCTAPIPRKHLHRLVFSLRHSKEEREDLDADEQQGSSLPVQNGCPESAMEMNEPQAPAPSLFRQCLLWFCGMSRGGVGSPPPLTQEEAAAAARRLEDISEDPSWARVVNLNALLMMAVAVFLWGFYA
Protocol: (§1) Cloning of the human SGLT1 and human SGLT2 cDNAs and construction of the mammalian expression vector: The human SGLT1 cDNA (Genbank M24847) was cloned from human small intestine. Human SGLT2 cDNA (Genbank M95549) was cloned from human kidney. Both full cDNAs were subcloned into pcDNA and sequenced to verify the integrity of the construct.
(§2) Generation of CHO-K1 cells stably expressing human SGLT1 or human SGLT2: Transfection of CHO-K1 cells was performed using DMRIE-C reagent (Life Technologies, Gaithersburg, Md.). Transfectants were then selected in the presence of the antibiotic G418 (Gibco-BRL, Grand Island, N.Y.) at 400 μg/ml. Individual clones were then characterized using the functional assay described below.
(§3) Cell-based assay for sodium-dependent glucose transport: Cell lines stably expressing human SGLT1 or SGLT2 were then used for functional analysis of Na+-dependent glucose uptake. Briefly, cells were plated at a density of 65,000 cells per well in a 96-well plate and allowed to grow for 48 hours. Cells were subsequently washed one time with Assay Buffer (50 mM HEPES pH 7.4, 20 mM Tris, 5 mM KCl, 1 mM MgCl2, 1 mM CaCl2 and 137 mM NaCl) and treated with compound in the absence or presence of NaCl for 15 minutes. Cells were then labeled with ^14C-α-methylglucopyranoside (AMG, Sigma, St. Louis, Mo.), a non-metabolizable glucose analog specific for sodium-dependent glucose transporters as previously described (Peng, H. and Lever J. E. Post-transcriptional regulation of Na^+/glucose cotransporter (SGLT1) gene expression in LLC-PK1 cells. J Biol Chem 1995; 270:20536-20542.). After 2 hours the labelled cells were washed three times with ice-cold PBS. After aspiration, cells were solubilized using Microscint 20 (Packard, Meriden, Conn.) and Na-dependent ^14C-AMG uptake was quantified by measuring radioactivity. Plates were counted in a TopCount (Packard, Meriden, Conn.). Results are reported as the % inhibition or IC50 value from a representative experiment. Variability for the functional assay was typically within 20%.

human SGLT1 = biological target: T2, human SGLT1 (Homo sapiens, UniProt P13866); experiment: Cell-based assay for sodium-dependent glucose transport (14C-AMG uptake), CHOK-SGLT1; conditions: CHO-K1 cells stably expressing human SGLT1, Na-dependent 14C-AMG uptake; for inhibition at 10 µM: read-out: CHOK-SGLT1 % Inh. @10 μM
T2 construct: expressed in transfected cells; pcDNA vector)
T2 sequence (P13866 1-664): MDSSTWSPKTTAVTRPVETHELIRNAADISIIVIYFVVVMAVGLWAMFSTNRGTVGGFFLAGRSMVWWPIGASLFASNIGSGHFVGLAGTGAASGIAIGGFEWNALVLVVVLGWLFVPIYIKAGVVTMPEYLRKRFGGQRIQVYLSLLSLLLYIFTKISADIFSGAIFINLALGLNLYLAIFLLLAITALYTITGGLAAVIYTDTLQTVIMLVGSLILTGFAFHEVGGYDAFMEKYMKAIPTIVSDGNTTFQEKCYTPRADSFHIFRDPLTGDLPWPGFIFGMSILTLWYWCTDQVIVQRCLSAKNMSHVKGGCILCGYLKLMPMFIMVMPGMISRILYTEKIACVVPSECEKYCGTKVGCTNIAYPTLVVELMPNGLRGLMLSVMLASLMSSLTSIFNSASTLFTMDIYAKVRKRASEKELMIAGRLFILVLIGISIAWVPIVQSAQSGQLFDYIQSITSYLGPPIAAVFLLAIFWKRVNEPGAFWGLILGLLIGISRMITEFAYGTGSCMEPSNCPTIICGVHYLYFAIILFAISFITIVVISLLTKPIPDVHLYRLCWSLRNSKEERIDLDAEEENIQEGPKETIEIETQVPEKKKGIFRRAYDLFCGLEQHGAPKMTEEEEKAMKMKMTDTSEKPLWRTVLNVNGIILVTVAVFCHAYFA
Protocol: as §1, §2, §3

| SMILES | inhibition at 10 µM (human SGLT2) | inhibition at 10 µM (human SGLT1) | IC50 (human SGLT2) | IC50 (human SGLT1) |
| --- | --- | --- | --- | --- |
| O=c1[nH]c2cccc(OC3OC(CO)C(O)C(O)C3O)c2n1CCc1ccc2ccccc2c1 [Example 1, 2-[3-(2-Naphthalen-2-yl-ethyl)-1,3-dihydro-benzoimidazol-2-one-4-yloxy]-β-D-glucopyranoside] | 31% | – | – | – |
| OCC1OC(Oc2cccc3ncn(CCc4ccc5ccccc5c4)c23)C(O)C(O)C1O [Example 2, 2-[3-(2-naphthalen-2-yl-ethyl)-3H-benzoimidazol-4-yloxy]-β-D-glucopyranoside] | – | 55% | 0.334 µM | – |
| COc1ccc(CCn2c(=O)[nH]c3cccc(OC4OC(CO)C(O)C(O)C4O)c32)cc1 (stereo not drawn) [Example 6] | 18% | – | – | – |
| OCC1OC(Oc2cccc3ncn(CCc4ccc5c(c4)CCO5)c23)C(O)C(O)C1O (stereo not drawn) [Example 7, 2-{3-[2-(2,3-Dihydro-benzofuran-5-yl)-ethyl]-3H-benzoimidazol-4-yloxy}β-D glucopyranoside] | – | – | 0.038 µM | 0.7 µM |
| COc1ccc(CCn2nnc3cccc(OC4OC(CO)C(O)C(O)C4O)c32)cc1 [Example 9, 2-{3-[2-(4-methoxy-phenyl)-ethyl]-3H-benzotriazol-4-yloxy}-β-D-glucopyranoside] | – | 40% | 0.39 µM | – |

Further molecules by falling IC50 (human SGLT2), results first:

| inhibition at 10 µM (human SGLT2) | inhibition at 10 µM (human SGLT1) | IC50 (human SGLT2) | IC50 (human SGLT1) | SMILES |
| --- | --- | --- | --- | --- |
| – | 1% | 1.02 µM | – | CCc1ccc(Cn2c(=O)[nH]c3cccc(OC4OC(CO)C(O)C(O)C4O)c32)cc1 [Example 3, 2[3-(4-Ethyl-benzyl)-1,3-dihydro-benzoimidazol-2-one-4-yloxy]-β-D-glucopyranoside] |
| – | 61% | 0.365 µM | – | COc1ccc(CCn2cnc3cccc(OC4OC(CO)C(O)C(O)C4O)c32)cc1 [Example 5, 2-{3-[2-(4-Methoxyphenyl)-ethyl]-3H-benzoimidazol-4-yloxy}-β-D-glucopyranoside] |
| – | – | 0.061 µM | 1.12 µM | CCc1ccc(Cn2cnc3cc(C)cc(O[C@@H]4O[C@H](CO)[C@@H](O)[C@H](O)[C@H]4O)c32)cc1 [Example 8, 2-[3-(4-Ethyl-benzyl)-6-methyl-3H-benzoimidazol-4-yloxy]-β-D-glucopyranoside] |
| – | – | 0.016 µM | 1.12 µM | CCc1ccc(Cn2cnc3cccc(OC4OC(CO)C(O)C(O)C4O)c32)cc1 [Example 4, 2-[3-(4-Ethyl-benzyl)-3H-benzoimidazol-4-yloxy]-β-D-glucopyranoside] |
| – | – | 0.008 µM | 0.59 µM | CCc1ccc(Cn2nnc3cccc(OC4OC(CO)C(O)C(O)C4O)c32)cc1 [Example 10, 2-[3-(4-Ethyl-benzyl)-3H-benzotriazol-4-yloxy]-β-D-glucopyranoside] |
